The target in the test is T1, human MAGL (hMAGL) (Homo sapiens, UniProt Q99685).
T1 sequence (Q99685 1-303): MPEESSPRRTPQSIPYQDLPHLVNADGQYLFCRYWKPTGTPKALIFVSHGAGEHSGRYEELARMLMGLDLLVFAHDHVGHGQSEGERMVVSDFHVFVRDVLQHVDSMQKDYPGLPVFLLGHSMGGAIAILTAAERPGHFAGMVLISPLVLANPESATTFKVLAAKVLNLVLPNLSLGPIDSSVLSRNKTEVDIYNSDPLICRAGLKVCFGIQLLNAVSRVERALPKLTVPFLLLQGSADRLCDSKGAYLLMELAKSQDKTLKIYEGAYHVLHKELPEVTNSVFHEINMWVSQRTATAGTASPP
As to the kind of experiment: Human MAGL assay. Type of test: biochemical. Particulars: 10 μM compound concentration.

Consider 8-prenylnaringenin [NP-2], for which the “inhibition% against hMAGL” value is listed as “over 40%”.

The record behind these values is paper PMC9041313 (RSC Advances, 2021).
